Assay results reported in publication PMC6217552, “Refining the structure−activity relationships of 2-phenylcyclopropane carboxylic acids as inhibitors of O-acetylserine sulfhydrylase isoforms” (Journal of Enzyme Inhibition and Medicinal Chemistry, 2018).
Values after ≈ are worked out from the molar mass of the structure shown. “Also recorded” adds a separate entry of the source.

Tests used:
StOASS-B [1] = target: T1, StOASS-B (Salmonella typhimurium, UniProt P29848); design: method as in PMID 28821763; details: low affinity active site binder; read-out: Kd for OASS-B; cited from earlier work
T1 construct: made in house; host or cells: E. coli
T1 sequence (P29848 1-303): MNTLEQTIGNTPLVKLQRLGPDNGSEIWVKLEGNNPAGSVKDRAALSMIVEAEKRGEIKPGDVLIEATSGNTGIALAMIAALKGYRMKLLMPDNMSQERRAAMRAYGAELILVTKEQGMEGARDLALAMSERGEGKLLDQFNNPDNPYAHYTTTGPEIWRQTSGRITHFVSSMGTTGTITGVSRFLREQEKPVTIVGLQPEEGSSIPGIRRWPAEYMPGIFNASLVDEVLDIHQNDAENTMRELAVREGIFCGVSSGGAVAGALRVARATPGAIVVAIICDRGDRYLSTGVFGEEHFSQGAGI

StOASS-A = target: T2, StOASS-A (Salmonella typhimurium, UniProt P0A1E3); assay: Steady-state enzyme activity assay, discontinuous ninhydrin cysteine determination; format: biochemical, Salmonella enterica serovar Typhimurium; details: value in brackets in IC50 column
T2 construct: made in house; host or cells: E. coli
T2 sequence (P0A1E3 whole entry): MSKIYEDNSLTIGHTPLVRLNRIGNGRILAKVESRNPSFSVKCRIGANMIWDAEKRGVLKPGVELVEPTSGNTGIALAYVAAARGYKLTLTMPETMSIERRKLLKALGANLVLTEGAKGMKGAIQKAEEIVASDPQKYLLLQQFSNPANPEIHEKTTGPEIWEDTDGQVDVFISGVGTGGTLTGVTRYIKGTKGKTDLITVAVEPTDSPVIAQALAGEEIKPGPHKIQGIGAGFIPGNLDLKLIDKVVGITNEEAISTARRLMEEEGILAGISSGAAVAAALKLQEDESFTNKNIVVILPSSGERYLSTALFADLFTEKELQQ
Experimental: (§1) StOASS-A and StOASS-B, expressed in E. coli, were purified by metal affinity chromatography as described previously. Proteins were more that 95% pure based on SDS-PAGE analysis (data not shown).
(§2) Enzyme activity under steady-state conditions was measured by a discontinuous method as described previously. Briefly, the reaction was carried out in 100 mM HEPES pH 7.0 in the presence of 6 nM OASS, 60 nM BSA to prevent enzyme adhesion to tube wall, 1 mM OAS (equal to the K m value of this subsrate), 0.6 mM Na2S (a saturating concentration), 1% DMSO and variable concentrations of inhibitor. Reaction was stopped at time intervals by the addition of acetic acid and concentration of cysteine was determined by a modification of the ninhydrin assay. The fractional velocity as a function of inhibitor concentration was determined and IC50 was calculated by the following equation: vi/v0=1/1+(I/IC50) where, v 0 is the reaction velocity in the absence of inhibitor and v i is reaction velocity in the presence of inhibitor at concentration [I].
(§3) For a competitive inhibitor against OAS the IC50 measured under these conditions is about 2⋅K d.

StOASS-B [2] = target: T1, StOASS-B; assay: as above; format: biochemical; details: value in brackets in IC50 column
Experimental: as §1, §2, §3

[3] = system: Escherichia coli ATCC25922; assay: Minimal inhibitory concentration (CLSI) in medium with limiting cysteine; format: cell-based; details: E. coli ATCC25922, medium with limiting cysteine; data not shown
Experimental: Minimal inhibitory concentration assays were performed according to the CLSI guidelines (Clinical and Laboratory Standards Institute; Performance Standards for Antimicrobial Susceptibility Testing; Twenty-Fourth Informational Supplement; CLSI document M100-S24, CLSI; 2014.). The compounds were dissolved in DMSO to obtain a stock solution 100-fold more concentrated than the desired higher concentration and then 10 serial dilutions were performed. One microliter of each dilution was transferred to the microtiter plate.
Escherichia coli ATCC25922 was grown until log phase on liquid Mueller–Hinton broth at 37 °C in a shaker at 225 rpm. Bacterial suspension was then centrifuged at 2500 rpm for 15 min and diluted with phosphate buffer to obtain a solution with a turbidity of about 0.5 McFarland. Bacterial suspension was further diluted (1:100) with fresh LB 20%. Fifty microliters of the bacterial suspension containing 10^6 CFU/mL were inoculated into each well, to obtain a final concentration of 5 × 10^5 CFU/mL. Each plate contained growth control wells and sterility check wells.
We investigated the ability of the new set of compounds to interfere with bacterial growth.

[4] = Solubility limit in the buffer used for activity assays; format: physicochemical; details: aqueous buffer
From the text: It is possible to conclude that expansion of the series towards the para position of the phenyl ring, unless carried out with small groups, is detrimental for the activity of the compounds. […] Even though the carboxylic acid group is essential for the binding to OASS[13] ^, [27] ^, [28], its scarce diffusion across biological membranes is a well-known issue[32] ^, [33]. Therefore, to preserve the key interactions with the target, we carried out the replacement of the carboxylic acid by several isosters (Scheme 2). […] This prompted us to further investigate the mechanism of inhibition of these molecules, since the residual activity at saturating concentrations is significant (about 40 − 50%, Figure 3, panel A). […] This hampers the accurate determination of the inhibition mechanism due to limitations to the range of inhibitor concentration that can be explored. However, since partial inhibition is a typical feature of allosteric inhibitors, we used a method developed by our group[24] to assess if compound 25 is able to displace a low affinity active site binder, 1-ethylcyclopropane-1,2-dicarboxylic acid, that forms a highly fluorescent complex with OASS. […] This is a strong indication that compound 25 is not able to compete for binding to the active site with 1-ethylcyclopropane-1,2-dicarboxylic acid. […]

OASS-B = target: T3, OASS-B (Salmonella typhimurium, UniProt P29848); assay: Fluorescence competitive binding assay (displacement of 1-ethylcyclopropane-1,2-dicarboxylic acid); details: 200 µM 1-ECP-1,2-DCA, 190-200 µM compound, 100 mM Hepes, 1% DMSO, pH 7, 20 °C
T3 construct: made in house; host or cells: E. coli
T3 sequence (P29848 1-303): T1 sequence (P29848 1-303)
Experimental: Ligand affinity was measured by direct fluorimetric titrations, monitoring the fluorescence emission spectrum of cofactor PLP upon excitation at 412 nm. 0.1–1 µM OASS was titrated by increasing concentrations of ligand in 100 mM HEPES pH 7.0, 1% DMSO, at 20 °C. The dependence of fluorescence emission intensity on the concentration of compound was fitted to a binding isotherm: I=I0+ΔI·[ligand]/Kd+[ligand] where, I is the fluorescence emission intensity at a given ligand concentration, I 0 is the fluorescence emission intensity in the absence of ligand, ΔI is the amplitude and K d is the dissociation constant. When the K d was lower than the concentration of the protein used in the assay, the dependence of the fluoresecnce emission intensity on ligand concentration was fitted to a quadratic equation that describes tight binding. The fluorescence competitive binding assay, described elsewhere, was used to evaluate whether compounds bind at the active site of the enzyme or to an allosteric site. […] Binding of a higher affinity compound to the active site displaces 1-ethylcyclopropane-1,2-dicarboxylic acid and leads to a decrease in the fluorescence emission intensity.
Figure 3. […] Fluorescence emission spectra upon excitation at 412 nm were collected in the absence and presence of 200 µM 1-ethylcyclopropane-1,2-dicarboxylic acid (1-ECP-1,2-DCA). […]

CCC1(C(=O)O)CC1C(=O)O (stereo not drawn) [1-ethylcyclopropane-1,2-dicarboxylic acid]
Kd (StOASS-B [1]): 170 µM

Cc1ccc(C[C@]2(NS(C)(=O)=O)C[C@H]2c2ccccc2)cc1 [Compound 24, (1R,2S)-1-N-(1-(4-methylbenzyl)-2-phenylcyclopropyl)methanesulfonamide]
OASS-A percent inhibition measured at saturation of inhibitor or at the highest inhibitor concentration allowed by solubility (StOASS-A): 45% | OASS-B percent inhibition measured at saturation of inhibitor or at the highest inhibitor concentration allowed by solubility (StOASS-B [2]): 50% | Interference with bacterial growth (MIC) [3]: none of the synthesised compounds was able to interfere significantly with bacterial growth | solubility [4]: ~250 µM (≈ 78.9 µg/mL)

Cc1ccc(C[C@]2(NS(=O)(=O)c3ccc(C)cc3)C[C@H]2c2ccccc2)cc1 [Compound 25, (1R,2S)-4-methyl-N-(1-(4-methylbenzyl)-2-phenylcyclopropyl)benzenesulfonamide]
OASS-A percent inhibition measured at saturation of inhibitor or at the highest inhibitor concentration allowed by solubility (StOASS-A): 39% | OASS-B percent inhibition measured at saturation of inhibitor or at the highest inhibitor concentration allowed by solubility (StOASS-B [2]): 35% | solubility [4]: ~50 µM (≈ 19.6 µg/mL) | Displacement of 1-ethylcyclopropane-1,2-dicarboxylic acid from OASS-B (OASS-B): unable to displace the compound up to an equimolar concentration of about 200 μM; also recorded: does not change the emission spectrum
